Experimental data reported in PMC11881561 (Antimicrobial Agents and Chemotherapy, 2025).
Converted amounts (≈) assume the structure as drawn.

Experiments:
[1] = system: E. coli control strain lacking a β-lactamase; assay: microbe, parasite or virus in culture; format: cell-based; settings: Escherichia coli, no KPC expressed, BLIs at fixed 4 μg/mL
[2] = system: engineered E. coli strain expressing KPC-2 wt; assay: microbe, parasite or virus in culture; format: cell-based; settings: Escherichia coli; KPC-2 wt strain; BLIs at fixed 4 μg/mL
[3] = system: engineered E. coli strain expressing KPC-2^V240G; assay: microbe, parasite or virus in culture; format: cell-based; settings: Escherichia coli, BLIs at fixed 4 μg/mL
[4] = system: engineered E. coli strain expressing KPC-2^D179Y; assay: microbe, parasite or virus in culture; format: cell-based; settings: Escherichia coli, BLIs at fixed 4 μg/mL
[5] = system: engineered E. coli strain expressing KPC-2^D179Y/T243M; assay: microbe, parasite or virus in culture; format: cell-based; settings: Escherichia coli, BLIs at fixed 4 μg/mL
[6] = system: engineered E. coli strain expressing KPC-3 wt; assay: microbe, parasite or virus in culture; format: cell-based; settings: Escherichia coli; KPC-3 wt strain; BLIs at fixed 4 μg/mL
[7] = system: engineered E. coli strain expressing KPC-3^V240G; assay: microbe, parasite or virus in culture; format: cell-based; settings: Escherichia coli, BLIs at fixed 4 μg/mL
[8] = system: engineered E. coli strain expressing KPC-3^D179Y; assay: microbe, parasite or virus in culture; format: cell-based; settings: Escherichia coli, BLIs at fixed 4 μg/mL
[9] = system: engineered E. coli strain expressing KPC-3^D179Y/T243M; assay: microbe, parasite or virus in culture; format: cell-based; settings: Escherichia coli, BLIs at fixed 4 μg/mL
[10] = system: E. coli strains expressing KPC-2^D179Y or KPC-2^D179Y/T243M; assay: microbe, parasite or virus in culture; format: cell-based; settings: Escherichia coli
KPC-2^V240G = KPC-2^V240G (Klebsiella pneumoniae, UniProt Q9F663, V239G); format: biochemical
KPC-2^D179Y [11] = target: T1, KPC-2^D179Y (Klebsiella pneumoniae, UniProt Q9F663, D178Y); assay: β-lactam hydrolysis kinetics, purified KPC-2 D179Y; format: biochemical; settings: substrate hydrolysis by KPC-2 D179Y
Protocol: (§1) Measurements to determine kinetic parameters for hydrolysis, and kinetic parameters for inhibition were performed at ambient temperature in PBS (pH 7.4) containing 0.1 mg/mL bovine serum albumin, using a PowerWaveXS plate reader (BioTek).
(§2) Assays to determine Michaelis-Menten kinetic parameters were performed by mixing variable amounts of enzymes (depending on the enzyme-substrate pair), with serial dilutions of different BL substrates and continuously monitoring the reduction in absorbance associated with BL hydrolysis ([28], [36], [40], [41]). Kinetic parameters were determined by plotting initial rates of hydrolysis (v) as a function of substrate concentration [S] and fitting the data to equation 1 using GraphPad Prism,
(§3) (1) v=[Et]×kcat×[S]/KM+[S]
(§4) where [Et] is the enzyme concentration, kcat the turnover number and KM the Michaelis constant.

KPC-2^D179Y/T243M [12] = target: T2, KPC-2^D179Y/T243M (Klebsiella pneumoniae, UniProt Q9F663, D178Y/T242M); assay: β-lactam hydrolysis kinetics, purified KPC-2 D179Y/T243M; format: biochemical; settings: substrate hydrolysis by KPC-2 D179Y/T243M
Protocol: as §1, §2, §3, §4

KPC-3 WT [13] = target: T3, KPC-3 WT (Klebsiella pneumoniae, UniProt Q9F663, H272Y); format: biochemical; settings: substrate hydrolysis by KPC-3 WT
KPC-3^V240G = KPC-3^V240G (Klebsiella pneumoniae, UniProt Q9F663, H272Y/V239G); format: biochemical
KPC-3^D179Y [14] = target: T4, KPC-3^D179Y (Klebsiella pneumoniae, UniProt Q9F663, D178Y/H272Y); assay: β-lactam hydrolysis kinetics, purified KPC-3 D179Y; format: biochemical; settings: substrate hydrolysis by KPC-3 D179Y
Protocol: as §1, §2, §3, §4

KPC-3^D179Y/T243M [15] = target: T5, KPC-3^D179Y/T243M (Klebsiella pneumoniae, UniProt Q9F663, D178Y/H272Y/T242M); assay: β-lactam hydrolysis kinetics, purified KPC-3 D179Y/T243M; format: biochemical; settings: substrate hydrolysis by KPC-3 D179Y/T243M
Protocol: as §1, §2, §3, §4

KPC-2 WT = KPC-2 WT (Klebsiella pneumoniae, UniProt Q9F663); assay: biochemical; settings: inhibition of CENTA hydrolysis, read-out: Apparent affinity Ki^app
KPC-2^D179Y [16] = target: T1, KPC-2^D179Y; assay: biochemical; settings: ND = no significant inhibition at the highest concentration tested, read-out: Apparent affinity Ki^app
KPC-2^D179Y/T243M [17] = target: T2, KPC-2^D179Y/T243M; assay: biochemical; settings: ND = no significant inhibition at the highest concentration tested, read-out: Apparent affinity Ki^app
KPC-3 WT [18] = target: T3, KPC-3 WT; assay: biochemical; settings: inhibition of CENTA hydrolysis, read-out: Apparent affinity Ki^app
KPC-3^D179Y [19] = target: T4, KPC-3^D179Y; assay: biochemical; settings: ND = no significant inhibition at the highest concentration tested, read-out: Apparent affinity Ki^app
KPC-3^D179Y/T243M [20] = target: T5, KPC-3^D179Y/T243M; assay: biochemical; settings: ND = no significant inhibition at the highest concentration tested, read-out: Apparent affinity Ki^app
[21] = system: D179Y-containing KPC-2 variants; format: biochemical, Klebsiella pneumoniae
[22] = system: CC(C)(O/N=C(\C(=O)N[C@@H]1C(=O)N2C(C(=O)[O-])=C(C[n+]3ccccc3)CS[C@H]12)c1csc(N)n1)C(=O)O; assay: purified protein, by the assay type; settings: pH 7.4
[23] = system: CO/N=C(\C(=O)N[C@@H]1C(=O)N2C(C(=O)[O-])=C(C[N+]3(C)CCCC3)CS[C@H]12)c1csc(N)n1; assay: purified protein, by the assay type; settings: pH 7.4
[24] = system: Nc1nc(/C(=C/CC(=O)O)C(=O)N[C@@H]2C(=O)N3C(C(=O)O)=CCS[C@H]23)cs1; assay: purified protein, by the assay type; settings: pH 7.4

CO/N=C(\C(=O)N[C@@H]1C(=O)N2C(C(=O)[O-])=C(C[N+]3(C)CCCC3)CS[C@H]12)c1csc(N)n1 [FEP, cefepime]
MIC [1]: 0.12 µg/mL (≈ 0.25 µM) | MIC [2]: 64 µg/mL (≈ 133 µM) | MIC [3]: 128 µg/mL (≈ 266 µM) | MIC [4]: 16 µg/mL (≈ 33.3 µM) | MIC [5]: 16 µg/mL (≈ 33.3 µM) | MIC [6]: 128 µg/mL (≈ 266 µM) | MIC [7]: 256 µg/mL (≈ 533 µM) | MIC [8]: 32 µg/mL (≈ 66.6 µM) | MIC [9]: 16 µg/mL (≈ 33.3 µM) | MIC [10]: 16 µg/mL (≈ 33.3 µM) | Km (KPC-2^V240G): > 500 µM | Km (KPC-2^D179Y [11]): 3.7 ± 0.7 µM | kcat (KPC-2^D179Y [11]): (1.5 ± 0.07) × 10^−2 s^−1 | Km (KPC-2^D179Y/T243M [12]): 3 ± 0.6 µM | kcat (KPC-2^D179Y/T243M [12]): (1.7 ± 0.06) × 10^−2 s^−1 | Km (KPC-3 WT [13]): > 500 µM | Km (KPC-3^V240G): > 500 µM | Km (KPC-3^D179Y [14]): 90 ± 31 µM | kcat (KPC-3^D179Y [14]): 38 ± 7 s⁻¹ | Km (KPC-3^D179Y/T243M [15]): 42.5 ± 12.5 µM | kcat (KPC-3^D179Y/T243M [15]): 18.7 ± 2.3 s⁻¹ | Ki (KPC-2 WT): 32.9 ± 5.6 µM | Ki (KPC-2^D179Y [16]): 4.6 ± 1.2 µM | Ki (KPC-2^D179Y/T243M [17]): 3.2 ± 0.6 µM | Ki (KPC-3 WT [18]): 276 ± 47 µM | Ki (KPC-3^D179Y [19]): 1040 ± 72 µM | Ki (KPC-3^D179Y/T243M [20]): 728 ± 58 µM | weaker affinity than CAZ [21]: ~ 10 fold

KPC-2 WT (Klebsiella pneumoniae)
kcat/Km [22]: 730 ± 130 M⁻¹ s⁻¹ | kcat/Km [23]: 130000 ± 4000 M⁻¹ s⁻¹ | kcat/Km [24]: 2200 ± 240 M⁻¹ s⁻¹
